Results reported in PubChem BioAssay (NCI).
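GI50 is the concentration that inhibits growth by half. The concentration for full growth arrest is given as TGI.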

Key:
Test in all cases: DTP human tumour cell line panel, 384-well format
[1] = test system: 786-0 renal
[2] = test system: A498 renal
[3] = test system: A549 NSCLC
[4] = test system: ACHN renal
[5] = test system: BT-549 breast
[6] = test system: CAKI-1 renal
[7] = test system: COLO 205 colon
[8] = test system: DU-145 prostate
[9] = test system: EKVX NSCLC
[10] = test system: HCC-2998 colon
[11] = test system: HCT-116 colon
[12] = test system: HCT-15 colon
[13] = test system: HL-60(TB) leukemia
[14] = test system: HOP-62 NSCLC
[15] = test system: HOP-92 NSCLC
[16] = test system: HS 578T breast
[17] = test system: HT29 colon
[18] = test system: IGROV1 ovarian
[19] = test system: K-562 leukemia
[20] = test system: KM12 colon
[21] = test system: LOX IMVI melanoma
[22] = test system: M14 melanoma
[23] = test system: MALME-3M melanoma
[24] = test system: MCF7 breast
[25] = test system: MDA-MB-231 breast
[26] = test system: MDA-MB-435 melanoma
[27] = test system: MDA-MB-468 breast
[28] = test system: MOLT-4 leukemia
[29] = test system: NCI-H226 lung
[30] = test system: NCI-H23 lung

`C[C@@H]1C[C@H](N)C[C@H](c2ccncc2NC(=O)c2ccc(F)c(-c3c(F)cccc3F)n2)C1` gave a GI50 [1] of 6.99 µM, a TGI [1] of 19.5 µM and a GI50 [2] of 4.81 µM. It also gave a TGI [2] of 18.1 µM, a GI50 [3] of 12.5 µM and a TGI [3] of 25.5 µM. It also gave a GI50 [4] of 13.8 µM, a TGI [4] of 26.9 µM and a GI50 [5] of 5.53 µM. The TGI [5] was 19.2 µM, the GI50 [6] was 3.78 µM and the TGI [6] was 17.2 µM. For the same compound, the GI50 [7] was 4.64 µM, the TGI [7] was 11.9 µM and the GI50 [8] was 15.7 µM. For the same compound, the TGI [8] was 29.3 µM, the GI50 [9] was 6.36 µM and the TGI [9] was 19.3 µM. For the same compound, the GI50 [10] was 1.9 µM, the TGI [10] was 4.02 µM and the GI50 [11] was 7.07 µM. The TGI [11] was 19.9 µM, the GI50 [12] was 9.74 µM and the TGI [12] was 23.8 µM. For the same compound, the GI50 [13] was 3.6 µM, the TGI [13] was 16.3 µM and the GI50 [14] was 12.8 µM. It also gave a TGI [14] of 25.5 µM, a GI50 [15] of 6.4 µM and a TGI [15] of 19.7 µM. The GI50 [16] was 10.2 µM, the TGI [16] was 21.9 µM and the GI50 [17] was 5.3 µM. The TGI [17] was 14.9 µM, the GI50 [18] was 7.37 µM and the TGI [18] was 19.9 µM. For the same compound, the GI50 [19] was 2.17 µM, the TGI [19] was 10.9 µM and the GI50 [20] was 10.4 µM. For the same compound, the TGI [20] was 22.3 µM, the GI50 [21] was 4.22 µM and the TGI [21] was 15.6 µM. The GI50 [22] was 3.43 µM, the TGI [22] was 7.63 µM and the GI50 [23] was 1.49 µM. For the same compound, the TGI [23] was 3.11 µM, the GI50 [24] was 7.02 µM and the TGI [24] was 20.3 µM. For the same compound, the GI50 [25] was 13.3 µM, the TGI [25] was 26.1 µM and the GI50 [26] was 11.5 µM. It also gave a TGI [26] of 24 µM, a GI50 [27] of 3.42 µM and a TGI [27] of 10.2 µM. It also gave a GI50 [28] of 3.21 µM, a TGI [28] of 12.5 µM and a GI50 [29] of 4.79 µM. It also gave a TGI [29] of 20.8 µM and a GI50 [30] of 14.5 µM.
